Laboratory results as given in ChEMBL document CHEMBL4177613, “Development of photoaffinity derivatives of the antitumor macrolide aplyronine A, a PPI-inducer between actin and tubulin” (Bioorg Med Chem, 2017).
The source made the active and inactive calls. The calls are words filed in the database; no cut-off is given here.

Key:
HeLa S3 = test: Cytotoxicity against human HeLaS3 cells after 96 hrs by MTT assay; assay type: functional, cell-based; conditions: HeLa S3, 96 h
Sus scrofa = species on record: Sus scrofa; test: Binding affinity to pig brain tubulin preincubated for 30 mins followed by UV irradiation of 0.8 mW for 15 mins measured after 30 mins by TAMRA azide-based fluorescence SDS-PAGE analysis
[1] = Binding affinity to rabbit skeletal muscle actin/porcine brain tubulin preincubated for 30 mins followed by UV irradiation of 0.8 mW for 15 mins measured after 30 mins by TAMRA azide-based fluorescence SDS-PAGE analysis
[2] = Binding affinity to rabbit skeletal muscle actin/pig brain tubulin preincubated for 60 mins followed by UV irradiation for 15 mins in presence of aplyronine A by SDS-PAGE analysis
Oryctolagus cuniculus [3] = species on record: Oryctolagus cuniculus; test: Binding affinity to rabbit skeletal muscle actin preincubated for 60 mins followed by UV irradiation for 15 mins in presence of aplyronine A by SDS-PAGE analysis
Oryctolagus cuniculus [4] = species on record: Oryctolagus cuniculus; test: Binding affinity to rabbit skeletal muscle actin preincubated for 30 mins followed by UV irradiation of 0.8 mW for 15 mins measured after 30 mins by TAMRA azide-based fluorescence SDS-PAGE analysis
Oryctolagus cuniculus [5] = species on record: Oryctolagus cuniculus; test: Inhibition of rabbit skeletal muscle F-actin polymerization at 3 uM after 1 hr by SDS-PAGE assay

COCC(C(=O)O[C@@H]1C/C=C/C=C/C(=O)O[C@H]([C@@H](C)[C@@H](O)[C@@H](C)CC[C@@H](OC(=O)[C@H](C)N(C)C)[C@H](C)[C@H](OC(C)=O)[C@H](C)CC=NOCC(=O)NCCCC[C@H](NC(=O)c2ccc(C3(C(F)(F)F)N=N3)cc2)C(=O)NCCCOCCOCCOCCCNC(=O)CCCC[C@@H]2SC[C@@H]3NC(=O)N[C@@H]32)C/C=C/[C@H](OC)C[C@H](C)C/C=C(\C)[C@@H](OC)CC[C@@H](C)[C@@H](O)[C@@H]1C)N(C)C (stereo not given in full) showed an IC50 (HeLa S3) of 1.2 nM.

For COCC(C(=O)O[C@@H]1C/C=C/C=C/C(=O)O[C@H]([C@@H](C)[C@@H](O)[C@@H](C)CC[C@@H](OC(=O)[C@H](C)N(C)C)[C@H](C)[C@H](OC(C)=O)[C@H](C)CC=NOCC(=O)NCCCC[C@H](NC(=O)CCC(=O)NCCCOCCOCCOCCCNC(=O)c2ccc(C3(C(F)(F)F)N=N3)cc2)C(=O)NCCCOCCOCCOCCCNC(=O)CCCC[C@@H]2SC[C@@H]3NC(=O)N[C@@H]32)C/C=C/[C@H](OC)C[C@H](C)C/C=C(\C)[C@@H](OC)CC[C@@H](C)[C@@H](O)[C@@H]1C)N(C)C (stereo not given in full), the Activity (Sus scrofa) was “Active”, the IC50 (HeLa S3) was 0.54 nM and the Activity [1] was “Active”.

In the case of COCC(C(=O)O[C@@H]1C/C=C/C=C/C(=O)O[C@H]([C@@H](C)[C@@H](O)[C@@H](C)CC[C@@H](OC(=O)[C@H](C)N(C)C)[C@H](C)[C@H](OC(C)=O)[C@H](C)CC=NOCC(=O)NCCCC[C@H](NC(=O)CCC(=O)NCCCOCCOCCOCCCNC(=O)c2ccc(C3(C(F)(F)F)N=N3)cc2)C(=O)NCCCCCCNC(=O)c2ccc(-c3c4ccc(N(C)C)cc4[o+]c4cc(N(C)C)ccc34)c(C(=O)[O-])c2)C/C=C/[C@H](OC)C[C@H](C)C/C=C(\C)[C@@H](OC)CC[C@@H](C)[C@@H](O)[C@@H]1C)N(C)C (stereo not given in full), the IC50 (HeLa S3) is reported as 28 nM, the Activity [2] is reported as “inactive” and the Activity (Oryctolagus cuniculus [3]) is reported as “Active”.

In the case of C#CCNC(=O)[C@H](CCCCNC(=O)CON=CC[C@@H](C)[C@@H](OC(C)=O)[C@@H](C)[C@@H](CC[C@H](C)[C@H](O)[C@H](C)[C@@H]1C/C=C/[C@H](OC)C[C@H](C)C/C=C(\C)[C@@H](OC)CC[C@@H](C)[C@@H](O)[C@H](C)[C@H](OC(=O)C(COC)N(C)C)C/C=C/C=C/C(=O)O1)OC(=O)[C@H](C)N(C)C)NC(=O)c1ccc(C2(C(F)(F)F)N=N2)cc1 (stereo not given in full), the Activity (Oryctolagus cuniculus [4]) is reported as “Active” and the IC50 (HeLa S3) is reported as 0.76 nM.

For COCC(C(=O)O[C@@H]1C/C=C/C=C/C(=O)O[C@H]([C@@H](C)[C@@H](O)[C@@H](C)CC[C@@H](OC(=O)[C@H](C)N(C)C)[C@H](C)[C@H](OC(C)=O)[C@H](C)CC=NOCC(=O)NCCCC[C@H](NC(=O)c2ccc(C3(C(F)(F)F)N=N3)cc2)C(=O)NCCCCCCNC(=O)c2ccc(-c3c4ccc(N(C)C)cc4[o+]c4cc(N(C)C)ccc34)c(C(=O)[O-])c2)C/C=C/[C@H](OC)C[C@H](C)C/C=C(\C)[C@@H](OC)CC[C@@H](C)[C@@H](O)[C@@H]1C)N(C)C (stereo not given in full), the IC50 (HeLa S3) was 13 nM, the Activity [2] was “inactive” and the Activity (Oryctolagus cuniculus [3]) was “Active”.

In the case of C#CCNC(=O)[C@H](CCCCNC(=O)CON=CC[C@@H](C)[C@@H](OC(C)=O)[C@@H](C)[C@@H](CC[C@H](C)[C@H](O)[C@H](C)[C@@H]1C/C=C/[C@H](OC)C[C@H](C)C/C=C(\C)[C@@H](OC)CC[C@@H](C)[C@@H](O)[C@H](C)[C@H](OC(=O)C(COC)N(C)C)C/C=C/C=C/C(=O)O1)OC(=O)[C@H](C)N(C)C)NC(=O)CCC(=O)NCCCOCCOCCOCCCNC(=O)c1ccc(C2(C(F)(F)F)N=N2)cc1 (stereo not given in full), the Activity (Oryctolagus cuniculus [4]) is reported as “Active”, the Activity (Sus scrofa) is reported as “inactive” and the IC50 (HeLa S3) is reported as 1.2 nM. The inhibition (Oryctolagus cuniculus [5]) was “Active” and the Activity [1] was “inactive”.

In the case of COCC(C(=O)O[C@@H]1C/C=C/C=C/C(=O)O[C@H]([C@@H](C)[C@@H](O)[C@@H](C)CC[C@@H](OC(=O)[C@H](C)N(C)C)[C@H](C)[C@H](OC(C)=O)[C@H](C)/C=C/N(C)C=O)C/C=C/[C@H](OC)C[C@H](C)C/C=C(\C)[C@@H](OC)CC[C@@H](C)[C@@H](O)[C@@H]1C)N(C)C (stereo not given in full), the IC50 (HeLa S3) is reported as 0.01 nM, the inhibition (Oryctolagus cuniculus [5]) is reported as “Active” and the Activity [1] is reported as “inactive”.
